One assay has as its target purified HLA-A*02:01 (Homo sapiens, UniProt P04439, D140Y/D185E/D98H/E176V/E277Q/G131W/G231S/I119V/I121R/I166T/I218V/L300P/L318F/N151K/N90K/P208A/P217A/Q86G/Q94H/R138H/R169H/T345S). The following applies: for HLA-A*02:01 binding (in words): relative to H3.3K27M, cell-free binding assay, performed once (Fig. 4 A).
A further assay has as its target HLA-A*02:03 (human). Put plainly: radioligand binding.

Entries after “also recorded” stand apart in the source; their conditions may differ. Ends that are not written are not given here.

A word on the IC50: it is the concentration that inhibits the measured activity by half. A lower IC50 goes with greater potency. As for RKSAPSTGGV [H3.3WT, reference compound], the IC50 against purified HLA-A*02:01 is > 38700 nM. Turning to XMSAPSTGGV [Cit H3.3], the “HLA-A*02:01 binding (in words)” value at purified HLA-A*02:01 is on record as “partially retains its affinity”.

On to RMSAPATGGV [A6], for which the “HLA-A*02:01 binding (in words)” value at purified HLA-A*02:01 is “abrogated; also recorded: diminished”. In the case of RMSAPSTGGV [H3.3K27M_(26–35) peptide], in the assay with HLA-A*02:03 (human), the IC50 turned out to be 747 nM.

(Values after paper PMC5748856 (The Journal of Experimental Medicine, 2018).)
